Data set [1] has as its target T1, (human) A2A adenosine receptors (Homo sapiens, UniProt P29274).
T1 construct: purchased PerkinElmer Research Products (Boston, Mass.); host or cells: HEK-293
Kind of data set: Radioligand binding test ([3H]CGS21680 displacement, hA2A HEK-293 cell membranes). The following applies: for Ki: read-out: Ki (inhibition constant). As to the method:
Cell membranes stably transfected with (human) A2A adenosine receptors were prepared in HEK-293 cells. The cell membranes were obtained from PerkinElmer Research Products (Boston, Mass.).
The A2A adenosine receptors used were all expressed in the cell membranes. […] (final 25 nM) was added to the diluted cell membrane, and mixed well. 50 μL of the prepared dilution solution of cell membrane was transferred to the 384-well Opti-plate containing compound and incubated at 25° C. for 90 minutes. 100 μL of 0.5% Polyethyleneimine solution (PEI) was added to […]-96 GF/B filter plate, and soaked for 90 minutes at 4° C., then 500 μL of washing buffer/well (50 mM Tris-HCl pH 7.4, 154 mM NaCl) was transferred with Cell Harvester to wash the […]-96 GF/B filter plate twice. The mixed system in the Opti-plate was transferred to the washed […]-96 GF/B filter plate, 500 μL of washing buffer/well (50 mM Tris-HCl pH 7.4, 154 mM NaCl) was used to wash the […]-96 GF/B filter plate 9 times. Incubation was performed in 37° C. incubator for 3 minutes. 40 μL of ULTIMA GOLD scintillation solution (Perkin Elmer, Cat #77-16061) was added to each well, CPM (count per minute) value was read by a MicroBeta liquid scintillation counter (PerkinElmer).

Data set [2] addresses human adenosine receptor A2A (Homo sapiens, UniProt P29274). Kind of data set: Adenosine receptor A2A cAMP test (LANCE Ultra cAMP, hADORA2A-HEK293 cells). It counts as cell-based. The following applies: for hA2AAR agonist function: cAMP test; for EC50: stimulating production of cyclic AMP, hADORA2A-HEK293 cells. From the text:
Experimental reagents and consumables: DMEM/F12, G418, Penicillin-Streptomycin, Versene Solution, HEPES, Hank's Buffered Saline Solution, PBS (pH 7.4, 1×, sterile), FBS, BSA Stabilizer 7.5%, Rolipram, NECA were separately purchased from Gibico, Hyclone and Sigma. LANCE® Ultra cAMP kit (Eu-cAMP tracer, Ulight-anti-cAMP reagent, cAMP detection buffer) and hADORA2A-HEK293 cells were purchased from PerkinElmer Research Products (Boston, Mass.). All other reagents were of analytical grade and obtained from commercial sources. 384-well polypropylene microplate and 384-well solid white plate were purchased from Labcyte and Corning, respectively.
The cells stably expressing human adenosine receptor A2A (hADORA2A-HEK293 cells) were cultured in DMEM/F12 medium containing 10% FBS, 1×Penicillin-Streptomycin and 400 μg/ml G418 in a 37° C. and 5% CO2 environment. Before the experiment, the cells were digested with Versene solution, and the cells were collected by centrifugation at 200 g and room temperature for 5 minutes, and finally resuspended with assay buffer (Hank's buffered saline solution, containing 5 mM HEPES, 0.1% BSA stabilizer and 10 μM Rolipram, pH 7.4). The TECAN automated liquid handling workstation was used to dilute the compound in a 384-well polypropylene microplate with DMSO to 11 concentration points in a 3-fold gradient to prepare the compound source plate, in which the 11 concentration points of the compound were 10 mM, 3.33 mM, 1.11 mM., 0.3 7mM, 0.1 2 mM, 0.041 mM, 0.013 mM, 4.57×10^−3 mM, 1.52×10^−3 mM, 5×10^−4 mM and 1.7×10^−4 mM. The Echo Acoustic Liquid Handler (Labcyte) was used to transfer the test compound from the compound source plate to an assay plate, in which the transfer volume of the compound was 10 nl/well. The hADORA2A-HEK293 cell suspension was diluted with assay buffer to 30,000 cells/ml, and the cell suspension was transferred to the assay plate at a volume of 10 μl/well (300 cells/well). The assay plate was centrifuged at 150 g for 1 minute and pre-incubated at room temperature for 30 minutes. The Eu-cAMP tracer working solution (Eu-cAMP tracer 40 μl, cAMP detection buffer 1.96 ml) (5 μl/well) was added to the assay plate, and then the Ulight-anti-cAMP working solution (13 μl of Ulight-anti-cAMP reagent and 1.95 ml of cAMP detection buffer) (5 µl/well) was added to the assay plate. The assay plate was rotated at 150 g for 30 seconds and incubated at room temperature for 30 minutes. The EnVision multimode plate reader (PerkinElmer) was used determine the level of cyclic adenosine monophosphate in the final solution (λex=320 nm, λem=665 nm & 615 nm). The EC50 (nM) value of the compound interacting with the A2A adenosine receptor to stimulate the production of cyclic adenosine monophosphate was calculated and the A2A receptor agonist titer of the compound was expressed as the EC50 (nM) value.
For orientation: Time-resolved FRET reads energy transfer from a long-lived donor to a nearby acceptor.

In data set [3] the test system is blood-brain barrier. Kind of data set: Animal experiment of blood-brain barrier disruption (FITC-Dextran in brain of SD rats). It counts as in vivo. The method, then:
Fluorescein-labeled dextran FITC-Dextran (CAS: 60842-46-8) with molecular weight of 10,000 MW was purchased from TCI (Shanghai) Development Co., Ltd.; PBS solution and experimental animal SD rats were obtained from commercial sources.
FITC-Dextran solutions with six concentration gradients ([…], 10 μg/ml) were prepared with PBS, and standard curve of FITC-Dextran concentration was made by using microplate reader (λex=490 nm, λem=520 nm). Additionally, 10 mg/ml FITC-Dextran solution was prepared, Compound 5 was added to PBS solution to prepare 1 mg/ml solution. 1 ml of 10 mg/ml FITC-Dextran solution and 1 ml of 1 mg/ml Compound 5 in PBS solution were taken and mixed to prepare administration solvent. 1 ml of 10mg/ml FITC-Dextran solution and 1 ml of PBS solution were taken and mixed to prepare blank control solution. 6 SD rats were injected with 2 ml of the administration solvent via tail vein, respectively, while another 6 SD rats were injected with 2 ml of the blank control solution via tail vein. […] The solution to be tested was subjected to fluorescence detection by using the microplate reader (λex=490 nm, λem=520 nm).
The measured fluorescence value by the microplate reader was converted into the corresponding FITC-Dextran average concentration according to the obtained standard curve of FITC-Dextran concentration.

[4] abbreviates: calculated from IC50 by Cheng and Prusoff equation, [S] 25 nM, Km […] nM.

Like-named read-outs stand apart in the source and are kept apart here.

Data on 5 compounds can be found in patent US20220378816A1, “2-BENZYLIDENE HYDRAZINOADENOSINE COMPOUNDS HAVING A2A ADENOSINE RECEPTOR AGONISTIC ACTIVITY” (ACADEMY OF MILITARY MEDICAL SCIENCES, priority 2019, published 2022).

T1 sequence (P29274 whole entry): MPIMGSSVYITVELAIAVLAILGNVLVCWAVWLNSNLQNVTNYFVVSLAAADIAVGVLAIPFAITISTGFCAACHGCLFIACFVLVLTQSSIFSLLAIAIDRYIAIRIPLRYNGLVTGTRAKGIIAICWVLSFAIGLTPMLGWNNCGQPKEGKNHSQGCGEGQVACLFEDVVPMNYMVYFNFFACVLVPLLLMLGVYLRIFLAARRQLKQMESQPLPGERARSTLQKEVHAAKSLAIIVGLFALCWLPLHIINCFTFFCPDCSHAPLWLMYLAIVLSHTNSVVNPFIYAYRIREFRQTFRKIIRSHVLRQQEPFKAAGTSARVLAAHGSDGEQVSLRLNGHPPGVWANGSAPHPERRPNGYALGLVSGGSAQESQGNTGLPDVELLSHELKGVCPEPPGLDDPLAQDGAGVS
Chain of human adenosine receptor A2A (P29274 whole entry): as above

Turning to `Nc1nc(N/N=C/c2ccc(OCc3ccccc3)c(OCc3ccccc3)c2)nc2c1ncn2[C@@H]1O[C@H](CO)[C@@H](O)[C@H]1O` [Compound 2, (2R,3R,4S,5R)-2-{6-amino-2-{2-[(E)-3,4-bis(benzyloxy)benzylidene]hydrazino}-9H-purin-9-yl}-5-(hydroxymethyl)tetrahydrofuran-3,4-diol], the melting point came to 220 °C. The IC50 in data set [1] came to 3.9 nM. In data set [1] (setting [4]), the Ki is 1.8 nM. For the same compound, in data set [2], the “hA2AAR agonist function” value is “shown as hA2AAR agonists” and the EC50 was determined as 0.64 nM.
Take `Nc1nc(N/N=C/c2ccc(OCc3ccc(F)cc3)cc2)nc2c1ncn2[C@@H]1O[C@H](CO)[C@@H](O)[C@H]1O` [Compound 5, (2R,3R,4S,5R)-2-{6-amino-2-{2-{(E)-4-[(4-fluorobenzyl)oxy]benzylidene}hydrazino}-9H-purin-9-yl}-5-(hydroxymethyl)tetrahydrofuran-3,4-diol]: the melting point was determined as 144 °C. Besides, the “opening of the blood-brain barrier” value in data set [3] (FITC-Dextran co-injected) is reported as “could open the blood-brain barrier”. For the same compound, the “FITC-Dextran concentration in brain” value in data set [3] (tail vein injection with FITC-Dextran (10,000 MW), brain taken after 30 minutes, average) was 0.11 µg/mL. The 50% inhibitory concentration (IC50) in data set [1] stood at 11.7 nM. In addition, the inhibition constant (Ki) in data set [1] (setting [4]) is 5.5 nM. Moreover, in data set [2], the “hA2AAR agonist function” value is recorded as “shown as hA2AAR agonists” and the response was half-maximal at 4.1 nM (EC50).
`Nc1nc(N/N=C/c2ccc(-c3ccccc3)cc2)nc2c1ncn2[C@@H]1O[C@H](CO)C(O)C1O` (some centres unmarked) [Compound 9] came in with a melting point of 234 °C. Also, in data set [2], the “hA2AAR agonist function” value is “shown as hA2AAR agonists”.
`CCN(CC)c1ccc(/C=N/Nc2nc(N)c3ncn([C@@H]4O[C@H](CO)[C@@H](O)[C@H]4O)c3n2)cc1` [Compound 15, (2R,3R,4S,5R)-2-{6-amino-2-{2-[(E)-4-(diethylamino)benzylidene]hydrazino}-9H-purin-9-yl}-5-(hydroxymethyl)tetrahydrofuran-3,4-diol] showed a melting point of 164 °C. For the same compound, in data set [1], the half-maximal inhibitory concentration (IC50) worked out at 13.7 nM and the Ki was 6.4 nM. In data set [2], the “hA2AAR agonist function” value was “shown as hA2AAR agonists” and the response was half-maximal at 17.9 nM (EC50).
Turning to `N#Cc1ccc(/C=N/Nc2nc(N)c3ncn([C@@H]4O[C@H](CO)C(O)C4O)c3n2)cc1` (some centres unmarked) [Compound 20], the melting point came to 276 °C. In addition, in data set [1], the 50% inhibitory concentration (IC50) is 18.1 nM and the Ki was 8.5 nM. The EC50 in data set [2] was 15.3 nM.

As a reminder, the IC50 is the concentration that inhibits the measured activity by half. A high value points to lower potency. Broadly, the Ki is a measure of affinity in units of concentration, obtained from inhibition or displacement. By melting point is commonly meant the temperature, or range, at which the solid turns liquid. The EC50 is the concentration at which the effect is half-maximal. Higher therefore signals lower potency in that assay.
